Where a name gives a salt, the structure may show the parent alone. Read-outs that look alike come from different tables or passages of the source.
Assays:
Format in all cases: cell-based
[1] = target: HER2 (A775_G776insYVMA) expressing Ba/F3 stable cell line (Homo sapiens, UniProt P04626, DUP772-775, cells depend on it); test: Cellular proliferation (Alamar Blue) assay, HER2 A775_G776insYVMA Ba/F3; conditions: 72 hr, read-out: YVMA IC50
How it was run: (§1)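 Ba/F3 stable lines (15,000 cells/well, RPMI + 10% FBS) seeded 16–18 h, then treated 72 h at 37 °C with compound, final 10–0.0005 μM in 3-fold dilutions. Viability read by Alamar Blue after 3 h incubation.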

[2] = target: EGFR(D770_N771insSVD) expressing Ba/F3 stable cell line (Homo sapiens, UniProt P00533, DUP768-770, cells depend on it); test: Cellular proliferation (Alamar Blue) assay, EGFR D770_N771insSVD Ba/F3; conditions: 72 hr, read-out: D770 IC50
Sequence of EGFR(D770_N771insSVD) expressing Ba/F3 stable cell line (P00533 with tags, fused parts or gaps DUP768-770): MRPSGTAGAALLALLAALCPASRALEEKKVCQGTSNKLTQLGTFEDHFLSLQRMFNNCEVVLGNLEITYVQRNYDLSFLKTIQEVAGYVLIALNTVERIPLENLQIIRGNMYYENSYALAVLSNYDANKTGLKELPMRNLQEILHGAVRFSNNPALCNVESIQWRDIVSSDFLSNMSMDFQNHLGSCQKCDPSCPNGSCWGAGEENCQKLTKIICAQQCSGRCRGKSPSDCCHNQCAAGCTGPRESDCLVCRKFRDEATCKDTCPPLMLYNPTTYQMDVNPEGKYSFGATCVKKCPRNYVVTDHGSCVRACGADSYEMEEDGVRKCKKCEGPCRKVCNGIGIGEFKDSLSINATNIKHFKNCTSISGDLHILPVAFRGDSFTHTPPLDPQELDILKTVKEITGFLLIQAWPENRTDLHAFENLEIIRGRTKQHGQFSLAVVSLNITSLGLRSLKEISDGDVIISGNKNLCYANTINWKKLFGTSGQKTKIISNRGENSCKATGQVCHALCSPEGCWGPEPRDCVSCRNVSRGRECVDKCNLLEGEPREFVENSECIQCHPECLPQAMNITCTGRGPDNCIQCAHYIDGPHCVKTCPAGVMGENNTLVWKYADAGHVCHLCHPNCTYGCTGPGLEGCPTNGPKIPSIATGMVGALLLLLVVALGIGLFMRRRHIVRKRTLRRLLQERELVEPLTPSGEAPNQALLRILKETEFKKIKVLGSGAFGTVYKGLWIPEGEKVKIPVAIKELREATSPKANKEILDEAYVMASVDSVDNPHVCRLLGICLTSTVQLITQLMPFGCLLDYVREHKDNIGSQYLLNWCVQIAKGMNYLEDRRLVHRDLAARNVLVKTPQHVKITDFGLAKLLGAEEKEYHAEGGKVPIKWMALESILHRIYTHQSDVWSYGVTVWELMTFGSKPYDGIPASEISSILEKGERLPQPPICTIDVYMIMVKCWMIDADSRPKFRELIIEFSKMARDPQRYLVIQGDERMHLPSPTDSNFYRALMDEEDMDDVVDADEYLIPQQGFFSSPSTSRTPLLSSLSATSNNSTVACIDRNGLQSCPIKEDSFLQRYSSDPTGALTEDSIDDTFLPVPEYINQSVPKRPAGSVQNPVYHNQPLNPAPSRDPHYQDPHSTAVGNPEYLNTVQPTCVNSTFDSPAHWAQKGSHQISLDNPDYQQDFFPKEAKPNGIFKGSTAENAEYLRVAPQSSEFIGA
How it was run: as §1

[3] = target: EGFR (A767_dupASV) expressing Ba/F3 stable cell line (Homo sapiens, UniProt P00533, DUP767-769, cells depend on it); test: Cellular proliferation (Alamar Blue) assay, EGFR A767_dupASV Ba/F3; conditions: 72 hr, read-out: A767 IC50
Sequence of EGFR (A767_dupASV) expressing Ba/F3 stable cell line (P00533 with tags, fused parts or gaps DUP767-769): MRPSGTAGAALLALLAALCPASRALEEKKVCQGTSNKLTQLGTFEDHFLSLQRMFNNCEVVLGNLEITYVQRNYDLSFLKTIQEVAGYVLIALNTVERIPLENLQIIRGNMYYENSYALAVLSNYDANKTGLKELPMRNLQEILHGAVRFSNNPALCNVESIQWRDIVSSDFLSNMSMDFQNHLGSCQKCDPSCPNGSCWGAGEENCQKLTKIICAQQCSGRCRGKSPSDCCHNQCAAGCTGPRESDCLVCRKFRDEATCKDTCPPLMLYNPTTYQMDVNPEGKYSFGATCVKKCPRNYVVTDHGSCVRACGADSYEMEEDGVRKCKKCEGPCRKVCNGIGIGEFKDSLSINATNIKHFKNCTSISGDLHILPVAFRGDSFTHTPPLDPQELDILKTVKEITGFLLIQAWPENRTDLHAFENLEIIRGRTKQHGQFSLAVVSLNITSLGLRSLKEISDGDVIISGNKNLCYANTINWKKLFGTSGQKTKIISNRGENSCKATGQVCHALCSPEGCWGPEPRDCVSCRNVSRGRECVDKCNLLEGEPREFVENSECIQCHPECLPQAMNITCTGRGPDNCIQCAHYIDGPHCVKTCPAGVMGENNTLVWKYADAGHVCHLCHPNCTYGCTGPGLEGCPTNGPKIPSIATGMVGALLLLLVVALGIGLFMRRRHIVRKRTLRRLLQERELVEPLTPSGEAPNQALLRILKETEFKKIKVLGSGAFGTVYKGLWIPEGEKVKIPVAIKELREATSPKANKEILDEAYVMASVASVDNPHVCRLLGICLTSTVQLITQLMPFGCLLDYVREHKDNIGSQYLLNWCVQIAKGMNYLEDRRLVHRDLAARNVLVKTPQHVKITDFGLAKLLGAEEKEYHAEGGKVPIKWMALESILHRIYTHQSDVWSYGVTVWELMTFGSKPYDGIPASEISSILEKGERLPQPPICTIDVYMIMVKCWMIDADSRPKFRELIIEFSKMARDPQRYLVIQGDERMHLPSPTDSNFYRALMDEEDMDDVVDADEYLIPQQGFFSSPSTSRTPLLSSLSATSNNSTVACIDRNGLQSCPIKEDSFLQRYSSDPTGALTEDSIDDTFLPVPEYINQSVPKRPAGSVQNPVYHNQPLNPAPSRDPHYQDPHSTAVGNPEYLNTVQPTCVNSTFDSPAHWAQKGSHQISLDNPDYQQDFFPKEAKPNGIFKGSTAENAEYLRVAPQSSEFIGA
How it was run: as §1

[4] = target: EGFR (H773insNPH) expressing Ba/F3 stable cell line (Homo sapiens, UniProt P00533, DUP771-773, cells depend on it); test: Cellular proliferation (Alamar Blue) assay, EGFR H773insNPH Ba/F3; conditions: 72 hr, read-out: NPH IC50
Sequence of EGFR (H773insNPH) expressing Ba/F3 stable cell line (P00533 with tags, fused parts or gaps DUP771-773): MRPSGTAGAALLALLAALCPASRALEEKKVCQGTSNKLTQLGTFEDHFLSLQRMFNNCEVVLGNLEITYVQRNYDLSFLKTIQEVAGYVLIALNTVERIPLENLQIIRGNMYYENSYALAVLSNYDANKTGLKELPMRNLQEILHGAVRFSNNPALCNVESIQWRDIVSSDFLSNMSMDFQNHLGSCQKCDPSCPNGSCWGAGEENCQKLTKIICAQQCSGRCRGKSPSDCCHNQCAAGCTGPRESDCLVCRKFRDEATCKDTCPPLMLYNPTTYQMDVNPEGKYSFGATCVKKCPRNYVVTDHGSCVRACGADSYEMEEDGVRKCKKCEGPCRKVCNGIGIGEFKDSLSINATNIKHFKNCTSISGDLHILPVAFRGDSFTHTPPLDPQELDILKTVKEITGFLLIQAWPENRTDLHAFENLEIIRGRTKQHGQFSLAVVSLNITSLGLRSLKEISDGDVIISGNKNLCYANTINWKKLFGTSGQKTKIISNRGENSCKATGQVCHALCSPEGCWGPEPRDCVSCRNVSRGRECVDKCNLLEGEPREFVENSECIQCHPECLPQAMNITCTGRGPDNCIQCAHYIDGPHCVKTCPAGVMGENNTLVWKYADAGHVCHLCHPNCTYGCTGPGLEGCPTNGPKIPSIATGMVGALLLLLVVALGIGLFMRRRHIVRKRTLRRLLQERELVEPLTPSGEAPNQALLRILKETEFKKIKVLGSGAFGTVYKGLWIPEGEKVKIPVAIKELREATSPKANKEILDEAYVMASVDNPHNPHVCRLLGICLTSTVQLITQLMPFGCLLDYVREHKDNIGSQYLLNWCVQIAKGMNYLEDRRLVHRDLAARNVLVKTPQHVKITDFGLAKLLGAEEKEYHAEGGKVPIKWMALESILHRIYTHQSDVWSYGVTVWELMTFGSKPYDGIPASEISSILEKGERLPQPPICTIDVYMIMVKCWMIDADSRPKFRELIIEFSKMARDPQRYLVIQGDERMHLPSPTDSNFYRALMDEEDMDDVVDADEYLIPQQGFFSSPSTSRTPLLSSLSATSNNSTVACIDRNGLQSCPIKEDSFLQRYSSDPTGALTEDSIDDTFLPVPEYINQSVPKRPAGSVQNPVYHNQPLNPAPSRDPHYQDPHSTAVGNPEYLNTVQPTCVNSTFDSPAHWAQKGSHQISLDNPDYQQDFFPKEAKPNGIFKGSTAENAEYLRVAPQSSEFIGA
Protocol: • 1. EGFR(D770_N771insSVD) expressing Ba/F3 stable cell line • 2. EGFR (A767_dupASV) expressing Ba/F3 stable cell line • 3. A431 cells • 4. EGFR (H773insNPH) expressing Ba/F3 stable cell line • 5. HER2 (A775_G776insYVMA) expressing Ba/F3 stable cell line Assay Procedure: • 1. Seed cells at 5000 for A431 and 15,000 cells for Ba/F3 in 100 μL/well in complete media (for A431: DMEM with […] and for Ba/F3 cells: RPMI with 10% FBS) in 96-well tissue culture plate. Leave outer wells without cells for background measurements. Incubate at 37 degree Celsius in […] humidified incubator for 16-18 hours. • 2. Add 0.025 ml of 5× concentration compound dilution or DMSO control. Final compound concentration range is 10-0.0005 μM prepared in 3-fold serial dilutions. Incubate for 72 hr at 37 degree Celsius in […] humidified incubator. • 3. Add 0.0125 ml Alamar Blue™ reagent to each well with multi-channel pipette and tap gently on each side of the plate to mix. Incubate for 3 hours at 37 degree Celsius in 5% CO2 humidified incubator. • 4. […] Data analysis was performed using XLfit 5.5.0.5.

A431 cells = test: Cellular proliferation (Alamar Blue) assay, A431; conditions: Homo sapiens
[5] = A-431, A431 cells, Alamar Blue, 72 hr, read-out: A431 IC50

Sequence of HER2 (A775_G776insYVMA) expressing Ba/F3 stable cell line (P04626 with tags, fused parts or gaps DUP772-775): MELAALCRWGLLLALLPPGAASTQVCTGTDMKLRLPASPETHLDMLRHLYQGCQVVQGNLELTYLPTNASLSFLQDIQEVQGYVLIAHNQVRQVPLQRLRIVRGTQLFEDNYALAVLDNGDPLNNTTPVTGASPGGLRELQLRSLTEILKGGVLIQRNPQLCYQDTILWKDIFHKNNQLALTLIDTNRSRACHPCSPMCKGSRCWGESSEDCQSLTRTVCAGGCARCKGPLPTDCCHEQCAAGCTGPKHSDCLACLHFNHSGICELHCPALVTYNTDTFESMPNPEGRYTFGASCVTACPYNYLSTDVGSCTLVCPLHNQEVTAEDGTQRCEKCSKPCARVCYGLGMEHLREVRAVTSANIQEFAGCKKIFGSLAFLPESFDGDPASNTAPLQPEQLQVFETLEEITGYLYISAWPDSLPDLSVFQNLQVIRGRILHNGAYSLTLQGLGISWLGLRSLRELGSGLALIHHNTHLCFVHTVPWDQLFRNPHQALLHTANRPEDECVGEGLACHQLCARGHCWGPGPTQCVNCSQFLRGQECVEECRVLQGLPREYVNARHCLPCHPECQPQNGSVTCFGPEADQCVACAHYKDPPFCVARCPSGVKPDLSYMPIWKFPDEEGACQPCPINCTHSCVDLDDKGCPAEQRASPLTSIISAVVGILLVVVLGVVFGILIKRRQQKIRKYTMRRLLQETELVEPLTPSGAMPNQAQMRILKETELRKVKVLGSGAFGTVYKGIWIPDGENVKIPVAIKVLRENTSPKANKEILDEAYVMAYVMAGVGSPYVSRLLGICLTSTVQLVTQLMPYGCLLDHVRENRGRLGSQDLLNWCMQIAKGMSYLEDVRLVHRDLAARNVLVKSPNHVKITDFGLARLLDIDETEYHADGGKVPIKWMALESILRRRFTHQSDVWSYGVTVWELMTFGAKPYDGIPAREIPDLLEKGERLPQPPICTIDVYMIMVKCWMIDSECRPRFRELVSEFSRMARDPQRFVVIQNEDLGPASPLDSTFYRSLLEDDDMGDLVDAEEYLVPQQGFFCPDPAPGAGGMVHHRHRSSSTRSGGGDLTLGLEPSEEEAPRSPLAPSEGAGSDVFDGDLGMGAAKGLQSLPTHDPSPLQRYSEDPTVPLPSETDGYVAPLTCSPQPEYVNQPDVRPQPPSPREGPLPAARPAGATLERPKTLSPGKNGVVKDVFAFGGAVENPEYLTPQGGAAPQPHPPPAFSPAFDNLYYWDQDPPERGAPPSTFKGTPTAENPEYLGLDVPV

SMILES	GI50 [1] [µM]	GI50 [2] [µM]	GI50 [3] [µM]	GI50 [4] [µM]	IC50 (A431 cells; [5]) [nM]	IC50 (A431 cells; A-431, 72 h, read-out: A431 IC50 (nM)) [nM]
C=CC(=O)Nc1ccc(F)c(Nc2nc(Nc3cnn(C)c3)ncc2-c2ccnc(OC(F)F)c2)c1 [Compound 71, N-(3-((5-(2-(difluoromethoxy)pyridin-4-yl)-2-((1-methyl-1H-pyrazol-4-yl)amino)pyrimidin-4-yl)amino)-4-fluorophenyl)acrylamide]	0.226	0.107	0.107	0.103	150	–
C=CC(=O)Nc1ccc(F)c(Nc2nc(Nc3cnn(CCN(C)C)c3)ncc2-c2ccc(C(F)(F)F)cc2)c1 [Compound 72, N-(3-((2-((1-(2-(dimethylamino)ethyl)-1H-pyrazol-4-yl)amino)-5-(4-(trifluoromethyl)phenyl)pyrimidin-4-yl)amino)-4-fluorophenyl)acrylamide trifluoroacetate]	0.129	0.099	0.108	0.095	80	–
C=CC(=O)Nc1ccc(F)c(Nc2nc(Nc3cnn(CCO)c3)ncc2-c2ccc(C(F)(F)F)cc2)c1 [Compound 78, N-(4-fluoro-3-((2-((1-(2-hydroxyethyl)-1H-pyrazol-4-yl)amino)-5-(4-(trifluoromethyl)phenyl)pyrimidin-4-yl)amino)phenyl)acrylamide]	0.266	0.084	0.093	0.053	> 10000	–
C=CC(=O)Nc1ccc(F)c(Nc2nc(Nc3cnn(C)c3)ncc2-c2ccnc(F)c2)c1 [Compound 82, N-(4-fluoro-3-((5-(2-fluoropyridin-4-yl)-2-((1-methyl-1H-pyrazol-4-yl)amino)pyrimidin-4-yl)amino)phenyl)acrylamide]	0.226	0.038	0.103	0.057	590	–
C=CC(=O)Nc1ccc(F)c(Nc2nc(Nc3cnn(C)c3)ncc2-c2ccnc(C(F)(F)F)c2)c1 [Compound 83, N-(4-fluoro-3-((2-((1-methyl-1H-pyrazol-4-yl)amino)-5-(2-(trifluoromethyl)pyridin-4-yl)pyrimidin-4-yl)amino)phenyl)acrylamide]	0.255	0.061	0.088	0.051	53	–
C=CC(=O)Nc1ccc(F)c(Nc2nc(Nc3cnn(C)c3)ncc2-c2cccnc2)c1 [Compound 84, N-(4-fluoro-3-((2-((1-methyl-1H-pyrazol-4-yl)amino)-5-(pyridin-3-yl)pyrimidin-4-yl)amino)phenyl)acrylamide]	0.119	0.064	0.083	0.05	–	191
C=CC(=O)Nc1ccc(F)c(Nc2nc(Nc3cnn(C4CCN(C)CC4)c3)ncc2-c2ccc(C(F)(F)F)cc2)c1 [Compound 85, N-(4-fluoro-3-((2-((1-(1-methylpiperidin-4-yl)-1H-pyrazol-4-yl)amino)-5-(4-(trifluoromethyl)phenyl)pyrimidin-4-yl)amino)phenyl)acrylamide]	0.378	0.109	0.249	0.119	5440	–
C=CC(=O)Nc1ccc(F)c(Nc2nc(Nc3cn(C)nc3F)ncc2-c2ccc(C(F)(F)F)cc2)c1 [Compound 87, N-(4-fluoro-3-((2-((3-fluoro-1-methyl-1H-pyrazol-4-yl)amino)-5-(4-(trifluoromethyl)phenyl)pyrimidin-4-yl)amino)phenyl)acrylamide]	0.413	0.171	0.239	0.234	97	–
C=CC(=O)Nc1ccc(F)c(Nc2nc(Nc3cnn(C)c3)ncc2-c2cccc(F)c2)c1 [Compound 88, N-(4-fluoro-3-((5-(3-fluorophenyl)-2-((1-methyl-1H-pyrazol-4-yl)amino)pyrimidin-4-yl)amino)phenyl)acrylamide]	0.198	0.035	0.048	0.049	929	–
C=CC(=O)Nc1ccc(F)c(Nc2nc(Nc3cnn(C)c3)ncc2-c2cccc(C(F)(F)F)c2)c1 [Compound 89, N-[4-fluoro-3-({2-[(1-methyl-1H-pyrazol-4-yl)amino]-5-[3-(trifluoromethyl)phenyl]pyrimidin-4-yl}amino)phenyl]prop-2-enamide]	0.665	0.101	0.106	0.058	84	–
C=CC(=O)Nc1ccc(F)c(Nc2nc(Nc3cnn(C)c3)ncc2-c2ccccc2F)c1 [Compound 90, N-(4-fluoro-3-((5-(2-fluorophenyl)-2-((1-methyl-1H-pyrazol-4-yl)amino)pyrimidin-4-yl)amino)phenyl)acrylamide]	0.358	0.103	0.237	0.103	320	–
C=CC(=O)Nc1ccc(F)c(Nc2nc(Nc3cnn(C)c3)ncc2-c2ccc(OC)cc2)c1 [Compound 91, N-(4-fluoro-3-((5-(4-methoxyphenyl)-2-((1-methyl-1H-pyrazol-4-yl)amino)pyrimidin-4-yl)amino)phenyl)acrylamide]	0.479	0.062	0.108	0.091	950	–
C=CC(=O)Nc1ccc(F)c(Nc2nc(Nc3cnn(C)c3)ncc2-c2ccc(OC(F)(F)F)cc2)c1 [Compound 92, N-(4-fluoro-3-((2-((1-methyl-1H-pyrazol-4-yl)amino)-5-(4-(trifluoromethoxy)phenyl)pyrimidin-4-yl)amino)phenyl)acrylamide]	0.612	0.102	0.075	0.089	133	–
C=CC(=O)Nc1ccc(F)c(Nc2nc(Nc3cnn(C)c3)ncc2-c2ccccc2)c1 [Compound 93, N-(4-fluoro-3-((2-((1-methyl-1H-pyrazol-4-yl)amino)-5-phenylpyrimidin-4-yl)amino)phenyl)acrylamide]	0.465	0.121	0.315	0.148	> 10000	–

Continued, in another order:

GI50 [1] [µM]	GI50 [2] [µM]	GI50 [3] [µM]	GI50 [4] [µM]	IC50 (A431 cells; [5]) [nM]	SMILES	IC50 (A431 cells; A-431, 72 h, read-out: A431 IC50 (nM)) [nM]
0.128	0.101	0.108	0.107	223	C=CC(=O)Nc1ccc(F)c(Nc2nc(Nc3cnn(C)c3)ncc2-c2ccnc(OC)c2)c1 [Compound 68, N-(4-fluoro-3-((5-(2-methoxypyridin-4-yl)-2-((1-methyl-1H-pyrazol-4-yl)amino)pyrimidin-4-yl)amino)phenyl)acrylamide]	–
0.019	0.011	0.014	0.021	65	C=CC(=O)Nc1ccc(F)c(Nc2nc(Nc3cnn(C)c3)ncc2-c2cncc(F)c2)c1 [Compound 69, N-(4-fluoro-3-((5-(5-fluoropyridin-3-yl)-2-((1-methyl-1H-pyrazol-4-yl)amino)pyrimidin-4-yl)amino)phenyl)acrylamide]	–
0.123	0.035	0.036	0.088	77	C=CC(=O)Nc1ccc(F)c(Nc2nc(Nc3cnn(C)c3)ncc2-c2ccc(OC(F)F)nc2)c1 [Compound 70, N-(3-((5-(6-(difluoromethoxy)pyridin-3-yl)-2-((1-methyl-1H-pyrazol-4-yl)amino)pyrimidin-4-yl)amino)-4-fluorophenyl)acrylamide]	–
0.113	0.039	0.045	0.1	252	C=CC(=O)Nc1cccc(Nc2nc(Nc3cnn(C)c3)ncc2-c2ccc(C(F)(F)F)nc2)c1 [Compound 73, N-(3-((2-((1-methyl-1H-pyrazol-4-yl)amino)-5-(6-(trifluoromethyl)pyridin-3-yl)pyrimidin-4-yl)amino)phenyl)acrylamide]	–
0.07	0.036	0.038	0.043	236	C=CC(=O)Nc1cccc(Nc2nc(Nc3cnn(C)c3)ncc2-c2ccc(F)nc2)c1 [Compound 74, N-(3-((5-(6-fluoropyridin-3-yl)-2-((1-methyl-1H-pyrazol-4-yl)amino)pyrimidin-4-yl)amino)phenyl)acrylamide]	–
0.1	0.035	0.074	0.043	37	C=CC(=O)Nc1ccc(F)c(Nc2nc(Nc3cnn(C)c3)ncc2-c2ccc(Br)cc2)c1 [Compound 75, N-(3-((5-(4-bromophenyl)-2-((1-methyl-1H-pyrazol-4-yl)amino)pyrimidin-4-yl)amino)-4-fluorophenyl)acrylamide trifluoroacetate]	–

From patent US12686673B2 (Blueprint Medicines Corporation, priority 2020, dated 2026)
